We go through seven molecules from PubChem BioAssay (NCI).

Test in all cases: NCI-60 cell line screen, 48 h
In test [1] the test system is A549 NSCLC.
In test [2] the test system is HOP-62 NSCLC.
Test [3] has as its system MALME-3M melanoma.
Test [4] relates to MDA-MB-231 breast.
Test [5] has as its system NCI-H23 lung.
For test [6], the system named is OVCAR-4 ovarian.
The subject of test [7] is PC-3 prostate.
In test [8] the test system is RPMI-8226 leukemia.
For test [9], the system named is SR leukemia.
The test system of test [10] is U251 CNS.

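Assay format: 96-well plates, 48-hour exposure. At the GI50, growth is halved. TGI: concentration producing complete growth inhibition.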

Take `Nc1nc(-c2ccc(F)cc2)c(-c2ccc3ncccc3n2)s1`: the GI50 in [1] is 13.7 µM; in test [2], 24.9 µM; in test [3], 19.6 µM; in test [4] it was greater than 25 µM; in test [5], 15.6 µM; in [6] it was 16.6 µM. Moreover, the GI50 in test [7] was 13.5 µM; in test [8], greater than 19.8 µM; in test [9], greater than 25 µM; in test [10], greater than 24.1 µM. Also, the TGI in test [1], in [2], in [3], in test [4], in test [5] and in test [6] was greater than 25 µM throughout. In addition, the TGI in [7], in [8], in test [9] and in test [10] was greater than 25 µM in each case.

Take `Fc1ccc(Nc2nc3nonc3nc2Nc2ccc(F)cc2)cc1`: the GI50 in test [1] is 0.354 µM; in test [2], 0.319 µM; in [3] it was 0.277 µM; in [4] it was 0.493 µM; in test [5], 0.264 µM; in [6], 0.294 µM. Besides, the GI50 in test [7] is 0.28 µM; in [8], 0.207 µM; in test [9], 0.447 µM; in test [10] it was 0.387 µM. Besides, the TGI was determined as 11.4 µM in [1]; 2.13 µM in test [2]; 1.11 µM in test [3]; 4.25 µM in [4]; 0.852 µM in [5]; 10.9 µM in [6]. The TGI came to 11.2 µM in test [7], 0.697 µM in [8], 2.75 µM in test [9] and 10.8 µM in test [10].

Take `CC[C@@H](C(=O)[C@@H](C)[C@@H](O)[C@H](C)[C@@H]1O[C@@H]([C@@H](CC)C(=O)N(CC)CC)CC[C@@H]1C)C1O[C@]2(C=CC(=O)[C@]3(CC[C@@](C)([C@H]4CC[C@](O)(CC)[C@H](C)O4)O3)O2)[C@H](C)C[C@@H]1C` (some centres not stated): the GI50 in [1] is 3.21 µM; in test [2] it was 3.75 µM; in [3], 1.93 µM; in test [4], 1.69 µM; in [5] it was 2.4 µM; in [6] it was 2.96 µM. In addition, the GI50 in test [7] is 2.6 µM; in test [8] it was 2.12 µM; in test [9] it was 2.39 µM; in test [10], 3.1 µM. In addition, the TGI is greater than 100 µM in test [1]; 20.1 µM in test [2]; 4.9 µM in test [3]; 3.33 µM in [4]; 6.91 µM in test [5]; 15.3 µM in test [6]. Further, the TGI in test [7] worked out at 24.7 µM; in test [8] it was 6.42 µM; in test [9] it was 6.63 µM; in test [10], 13.4 µM.

Consider `COc1cc(O)c(C(=O)/C=C/c2ccc(O)cc2)c(O)c1[C@@H]1C[C@H](CCc2ccc(O)cc2)O[C@H](c2ccc(O)cc2)C1`, for which the GI50 is 3.17 µM in test [2]; 5.46 µM in [3]; 2.26 µM in test [4]; 3.14 µM in test [5]; 3.35 µM in test [6]; 3.37 µM in test [7]. Also, the GI50 was 2.18 µM in test [8], 2.23 µM in test [9] and 3.31 µM in test [10]. For the same molecule, the TGI in [2] was 11.2 µM; in test [3], 28.7 µM; in [4] it was 6.32 µM; in test [5], 9.3 µM; in test [6], 16.8 µM; in test [7], 12.5 µM. In addition, the TGI in test [8] was determined as 5 µM; in test [9], 4.65 µM; in [10], 11.5 µM.

For `COc1cc(/C=C/C(=O)c2ccc(NC(=O)CN3CCN(c4cc5c(cc4F)c(=O)c(C(=O)O)cn5C4CC4)CC3)cc2)cc(OC)c1OC`, the GI50 in [1] was 0.368 µM; in test [2], 0.353 µM; in test [3] it was 2.32 µM; in test [4], 0.712 µM; in test [5], 0.971 µM; in [6], 1.38 µM. The GI50 is 0.782 µM in test [7], 0.31 µM in [8], 0.245 µM in test [9] and 0.373 µM in test [10]. The TGI in test [1] came out at 2.14 µM; in test [2] it was 3.93 µM; in [3], 14.5 µM; in [4] it was 6.36 µM; in test [5], 4.89 µM; in test [6], 22.3 µM. Besides, the TGI is greater than 100 µM in [7], greater than 100 µM in test [9] and 1.47 µM in test [10].

Consider `COc1ccc2c(c1)C(=O)c1c-2c(Nc2ccc(Cl)cc2)nc2ccccc12`, for which the GI50 in [1] was 13.3 µM; in [2], 2.86 µM; in [3] it was 11 µM; in [4], 4.46 µM; in [5], 13.6 µM; in test [6], 10.1 µM. Also, the GI50 is 15.5 µM in test [7], 24.5 µM in [8], 14 µM in [9] and 5.51 µM in test [10]. Moreover, the TGI was found to be 39.7 µM in test [1]; 11.3 µM in [2]; 42.4 µM in [3]; 18.9 µM in test [4]; 50.3 µM in test [5]; 42.9 µM in [6]. Besides, the TGI in [7] was 63.3 µM; in [8] it was greater than 100 µM; in test [9] it was 58.2 µM; in test [10], 18.4 µM.

As for `Nc1nc(-c2ccccc2)nc(N)c1N=O`, the GI50 in test [1] is 8.86 µM; in [2] it was 12.8 µM; in test [3] it was 6.71 µM; in [4], 12.6 µM; in [5] it was 14.6 µM; in test [6], 7.39 µM. The GI50 is 18.6 µM in test [7], 17.9 µM in test [8], 3.63 µM in [9] and 5.13 µM in test [10]. Moreover, the TGI in [1] turned out to be 23.3 µM; in [2], 30.5 µM; in [3], 22.9 µM; in test [4], 28.9 µM; in [5] it was 41.9 µM; in [6], 79.4 µM. Further, the TGI is 66.3 µM in test [7], 78.7 µM in [8], 54.9 µM in test [9] and 17.9 µM in test [10].
